According to US6387906B1, “2,4,4-trisubstituted-1,3-dioxolane antifungals” (priority 1997, dated 2002):

Experiments:
Candida kefyr = assay: Measurement of antifungal activity in vitro (lowest active dose) vs. Candida kefyr; type: cell-based; conditions: lowest concentration inhibiting growth below 35% of control growth; CYG broth, 37° C. for 48 h, turbidimetry
Procedure: (§1) Test compounds were dissolved at a concentration of 10^−2 M in dimethyl sulfoxide (DMSO) and diluted into CYG broth (Odds, F. C. Antimicrobial Agents and Chemotherapy 1992; 36: 1727-1737) to give a final concentration of 25 μM and, in most tests, 5 μM. For some compounds the tests were done at 100, 10, 1.0 and 0.1 μM. Cultures were inoculated with Candida.kefyr to an initial concentration of 10^4/ml and with Trichophyton rubrum to an equivalent concentration determined by turbidimetry. Cultures were incubated in the wells of microdilution plates at 37° C. for 48 h (C. kefyr) and at 30° C. for 5-7 days (T. rubrum). Growth in wells containing test compounds was estimated turbidimetrically as a percentage of growth in compound-free controls and the lowest concentration of compound that inhibited the growth of an isolate below 35% of control growth was recorded as the lowest active dose (LAD).

Trichophyton rubrum = assay: Measurement of antifungal activity in vitro (lowest active dose) vs. Trichophyton rubrum; type: cell-based; conditions: lowest concentration inhibiting growth below 35% of control growth; CYG broth, 30° C. for 5-7 days, turbidimetry
Procedure: as §1

- melting point: 177.8 °C
SMILES: CC(C)N1CCN(c2ccc(N3CCN(c4ccc(OC[C@H]5OC[C@](Cn6cncn6)(c6ccc(F)cc6F)O5)cc4)CC3)cc2)C1=O [Compound 51, (2S-cis)-1-[4-[4-[4-[[4-(2,4-difluorophenyl)-4-(1H-1,2,4-triazol-1-ylmethyl)-1,3-dioxolan-2-yl]methoxy]phenyl]-1-piperazinyl]phenyl]-3-(1-methylethyl)-2-imidazolidinone]
- LAD (μM) vs. C. keyr (Candida kefyr): ≦0.1 μM
- LAD (μM) vs. T. rubrum (Trichophyton rubrum): ≦0.1 μM
